Experimental data published in patent publication US8911605B2, “Method for antibiotic susceptibility testing and determining minimum inhibitory concentration of the antibiotic” (National Cheng Kung University, priority 2011, dated 2014).
Values after ≈ are worked out from the molar mass of the structure shown.

Key:
E. coli ATCC 25922 [1] = assay: Dielectrophoretic test (cell elongation, crossover frequency); assay type: cell-based, Escherichia coli; settings: for dielectrophoretic behaviour and cell elongation: alternating current frequency 600 kHz
Experimental: Phosphate-buffered saline (PBS) containing 137 mM NaCl, 2.7 mM KCl, 4.3 mM Na2HPO4, and 1.47 mM KH2PO4 at pH 7.4 was prepared. An oral β-lactam antibiotic, cephalexin (Sigma, USA), which generally is used in the treatment of urinary tract infection (UTI), was dissolved in 1×PBS and prepared into a stock concentration of 1024 μg/mL. This stock concentration was diluted with trypticase soy broth (TBS) into 4 μg/mL and 32 μg/mL.
Among different cell lines of Escherichia coli causing urinary infection, E. coli ATCC 25922 was selected and cultured with TBS under shaking at 37° C. Then, the bacterial concentration of the culture suspensions was adjusted to 1.5×10^6 cells/ml by a densitometer (VITEK 2, BioMérieux).
(§1) The bacterial suspension (100 μl) and TBS culture media (containing the antibiotic at different concentrations, 900 μl) were mixed ([…]) and incubated at 37° C. in a shaking incubator for 60 minutes. After the treatment, the bacterial suspensions (500-1000 μl) were centrifugated at 3000-5000 rpm for 3-5 minutes. The supernatant of the bacterial suspensions was removed. Finally, 0.2 M 4-(2-hydroxyethyl)-1-piperazineethanesulfonic acid (HEPES) buffer (500 μl, σ=3 mS/cm, Invitrogen 15630) was added to the remaining bacteria and the formed bacterial suspensions were shaken using a vortex mixer (Shin Kwang, Taiwan) for 30 seconds to avoid aggregation of the bacteria for the following dielectrophoretic tests.
(§2) The bacterial suspensions (5 μl) were pipetted into a sample well of the chip of Preparation Example 1. The electrode array was then connected to a function generator (Fluke 284 USA) and supplied with an alternating current signal or dielectrophoresis. The frequency of E. coli migrating from the electrode center to the electrode edge, was determined as crossover frequency (cof). During dielectrophoresis, the images were observed and recorded through an inverted microscope (Olympus IX70, Japan) and a CCD camera (Microfire, Optronics).
In the same manner as that of Example 1, the antibiotic solutions at 1 μg/mL, 2 μg/mL, 4 μg/mL, 8 μg/mL, 16 μg/mL, 32 μg/mL, and 64 μg/mL were prepared and their action periods of time were 30, 60, and 120 minutes. In addition, the chip of Preparation Example 2 was used in the analysis. For measurement of the cell length of E. coli during dielectrophoresis, when the bacteria were straightly arranged on an ITO quadruple electrode by field-induced dielectrophoretic force, the cell length was analyzed by the image software (FreePlus32).
(§3) In the same manner as that of Example 1, a cefazolin solution at 2 μg/mL was prepared and used to act on E. coli ATCC 25922, w958, and BCRC 15501 for 120 minutes for the following dielectrophoretic testing. Among these cell lines, E. coli w958 from National Cheng Kung University Hospital in Taiwan is a drug-resistant bacterium isolated from clinical samples.

E. coli = assay: Conventional agar dilution method; assay type: cell-based; settings: Escherichia coli
Source text: In order to confirm that the MIC determined in Example 2 of the present invention is not different from that determined in conventional methods, an agar dilution method was used to determine the MIC of cephalexin to E. coli.

E. coli ATCC 25922 [2] = assay: Conventional broth dilution method; assay type: cell-based; settings: Escherichia coli, ATCC25922, 0-16 μg/mL tested, read-out: inhibitory concentration (MIC)
Experimental: (§4) In order to confirm that the results from Example 3 of the present invention are not different from those from a conventional method, a broth dilution method was carried out on E. coli ATCC 25922, w958, and BCRC 15501 at 0 μg/mL, 0.5 μg/mL, 1 μg/mL, 2 μg/mL, 4 μg/mL, 8 μg/mL, 16 μg/mL of cefazolin. The results are shown in FIGS. 6 (a) to (c), wherein No denotes no bacteria.

E. coli BCRC 15501 [3] = assay: Conventional broth dilution method; assay type: cell-based; settings: Escherichia coli, BCRC15501, 0-16 μg/mL tested, read-out: inhibitory concentration (MIC)
Experimental: as §4

E. coli w958 [4] = assay: Conventional broth dilution method; assay type: cell-based; settings: Escherichia coli, 0-16 μg/mL tested, read-out: inhibitory concentration (MIC)
Experimental: as §4

E. coli BCRC 15501 [5] = assay: Dielectrophoretic test (cell elongation); assay type: cell-based, Escherichia coli; settings: cefazolin 2 μg/mL, 120 minutes
Experimental: as §1, §2, §3

E. coli w958 [6] = assay: Dielectrophoretic test (cell elongation); assay type: cell-based, Escherichia coli; settings: cefazolin 2 μg/mL, 120 minutes
Experimental: as §1, §2, §3

Row | MIC (E. coli ATCC 25922 [2]) [µg/mL] | MIC (E. coli BCRC 15501 [3]) [µg/mL] | MIC (E. coli w958 [4]) [µg/mL] | SMILES | crossover frequency (cof) (E. coli ATCC 25922 [1]; 32 μg/mL for 60 minutes) | cell length (E. coli ATCC 25922 [1]; 1-64 μg/mL, 30, 60, 120 minutes, FIGS. 3 (a) and (c)) | MIC (E. coli ATCC 25922 [1]; Escherichia coli, ATCC25922, 1 h, determined by dielectrophoresis, 60 minutes, read-out: minimum inhibitory concentration (MIC)) [µg/mL] | morphological cell elongation (E. coli ATCC 25922 [1]; FIG. 2 (c), text prints 60 minutes, figure legend 120 minutes) | cell elongation (E. coli ATCC 25922 [1]; antibiotic 4 μg/ml, 60 minutes, alternating current frequency 4 MHz) | dielectrophoretic behaviour and cell elongation (E. coli ATCC 25922 [1]; antibiotic 4 μg/ml, 60 minutes) | cell elongation (E. coli ATCC 25922 [1]; antibiotic 32 μg/ml for 1 hour, alternating current frequency 4 MHz) | dielectrophoretic behaviour and cell elongation (E. coli ATCC 25922 [1]; antibiotic 32 μg/ml for 1 hour) | morphological changes in bacteria (E. coli ATCC 25922 [1]; antibiotic treatment for 30 minutes, FIG. 2 (a)) | morphological cell elongation (E. coli ATCC 25922 [1]; antibiotic treatment for 60 minutes, FIG. 2 (b)) | MIC (E. coli) [µg/mL] | cell elongation (E. coli ATCC 25922 [1]; cefazolin 2 μg/mL, 120 minutes) | drug resistance of the bacterium (E. coli ATCC 25922 [1]; cefazolin 2 μg/mL, 120 minutes) | cell elongation (E. coli BCRC 15501 [5]) | drug resistance of the bacterium (E. coli BCRC 15501 [5]) | drug resistance of the bacterium (E. coli w958 [6]) | morphological cell elongation (E. coli w958 [6])
1 | – | – | – | CC1=C(C(=O)O)N2C(=O)[C@@H](NC(=O)[C@H](N)c3ccccc3)[C@H]2SC1 [cephalexin] | about 600 kHz | cell length increases as the concentration and action time increase | 32 (≈ 92.1 µM) | morphological cell elongation occurs obviously even at a low concentration of the antibiotic | some bacteria are slightly elongated | some bacteria are still arranged at the center of the electrodes by negative dielectrophoretic force. However, the others are adsorbed at the edges of the electrode by positive dielectrophoretic force and slightly elongated | all bacteria have become elongated | all bacteria are adsorbed at the edges of the electrode by positive dielectrophoretic force and have become elongated | distinction between morphological changes in bacteria is difficult | morphological cell elongation occurs obviously as the antibiotic concentrations increase | 32 to 64 (≈ 92.1 to 184 µM) | – | – | – | – | – | –
2 | 2 (≈ 4.4 µM) | 2 (≈ 4.4 µM) | > 16 | Cc1nnc(SCC2=C(C(=O)O)N3C(=O)[C@@H](NC(=O)Cn4cnnn4)[C@H]3SC2)s1 [cefazolin] | – | – | – | – | – | – | – | – | – | – | – | obvious cell elongation occurs | not resistant to cefazolin | obvious cell elongation occurs | not resistant to cefazolin | resistant to cefazolin | morphological cell elongation is unobvious
